According to US20220000835A1, “METHOD FOR TREATING CANCER WITH A COMBINATION OF QUERCETIN AND A CHEMOTHERAPY AGENT” (Quercis Pharma A.G., priority 2014, published 2022):

Columns and labels:
[1] = system: metastatic bladder cancer; assay: Patient with tumor from metastatic bladder cancer, PET scan and patient report; format: in vivo, human; conditions: patient bearing a tumor from metastatic bladder cancer
Procedure: In a particular example, a patient bearing a tumor resulting from metastatic bladder cancer failed monotherapy with cisplatin. Subsequently, the patient was treated daily with 100 mg cyclophosphamide together with a composition containing 2 g of quercetin. […] Of note, this patient typically would not have been treated further after failing the monotherapy with cisplatin.

[2] = Stabilization of quercetin by vitamin B3 and/or vitamin C; format: physicochemical; conditions: in the presence of one or both of vitamin B3 and vitamin C

| Structure (SMILES) | outcome of monotherapy [1] | stability of quercetin [2] |
| --- | --- | --- |
| N.N.[Cl][Pt][Cl] [cisplatin] | failed |  |
| O=c1c(O)c(-c2ccc(O)c(O)c2)oc2cc(O)cc(O)c12 [quercetin] |  | stabilized |
